Experimental data reported in paper PMC7515829, “HKDC1 C-terminal based peptides inhibit extranodal natural killer/T-cell lymphoma by modulation of mitochondrial function and EBV suppression” (Leukemia, 2020).

Key:
HKDC1/VDAC1 [1] = target: T1, HKDC1/VDAC1 (Homo sapiens, UniProt P21796); assay: IP/WB association of HKDC1 with VDAC1 in SNK6 cells; format: cell-based; design: endogenous in cells; host or cells: SNK6; conditions: 0.5 µM peptide, 6 h, vs CTL, n = 5 (Fig. 4c, d)
Method: (§1) Immunoprecipitation (IP) and Western Blotting (WB). Cell lysates were pre-cleared by pre-immune IgG plus Protein A agarose beads for 2 hours, and the supernatants were immunoprecipitated by the indicated antibodies and a 50% slurry of Protein A Agarose beads overnight at 4 °C (9). After washing with buffer containing 50 mM Tris, pH 7.5, 150 mM NaCl, 1% NP-40, and 0.5% deoxycholate with protease inhibitors, proteins were released, separated on 10% SDS-PAGE gels, blotted by primary antibodies, and then simultaneously incubated with the differentially labeled species-specific secondary antibodies, anti-RABBIT IRDye™ 800CW (green) and anti-MOUSE (or goat) ALEXA680 (red). Membranes were scanned and quantitated by the ODYSSEY Infrared Imaging System (LI-COR, NE) (10).

SNK6 cells [2] = assay: γH2AX formation (western blot); format: cell-based, human; conditions: 0.5 µM peptide, 6 h, vs CTL, n = 5 (Fig. 3d)
Method: Measurement of DNA breaks. 8-OHdG formation was measured using an OxiSelect™ Oxidative DNA Damage ELISA Kit (Cat No. STA320, from Cell Biolabs Inc.) per manufacturers’ instructions. The formation of γH2AX was measured from nuclear extracts by western blotting using H2AX as the input control (8).

SNK6 cells [3] = assay: Cell invasion assay; format: cell-based, human; conditions: 0.5 µM peptide, 6 h, Matrigel, vs CTL, n = 5 (Fig. 5c)
Method: Migration and invasion assays. Cell migration and invasion assays were performed in 24-well chemotaxis plates with an 8μm polycarbonate filter membrane. The plates were coated with 20μg Matrigel for invasion assays and uncoated for migration assays. Invasion and migration were expressed as the number of migrated cells bound per microscopic field and averaged from at least four fields per assay in at least 4 experiments (18, 19).

SNK6 xenograft = SNK6 xenograft tumor volume; format: in vivo, mouse; conditions: nude mice, n = 5; for tumor volumes on day 36: intratumoral 50 µM peptide every 2 days from day ~18, day 36, vs CTL; for tumor volumes on day 48: intratumoral 50 µM peptide every 2 days from day ~18, day 48, vs CTL
Method: To measure malignant SNK6 xenograft growth, 100 µl of 1 × 10^5 SNK6 cells in PBS were mixed with 100 µl growth factor-reduced basement membrane matrix (Matrigel™, BD Biosciences) resulting in 200 µl of solution that was injected subcutaneously along the mouse flank at each intended tumor site. Tumor size was measured using a digital caliper and volume was calculated, and mice were randomly divided into four groups (n = 9 per group) when the tumor volume reached 50–100 mm^3 on day ~18 after tumor inoculation and given treatment as follows: Group 1 (control (CTL)) was intratumorally injected with HBSS buffer (5.33 mM KCl, 0.44 mM KH2PO4, 138 mM NaCl, 4 mM NaHCO3, 0.3 mM Na2HPO4, and 5.6 mM glucose, pH 7.3) containing 0.05% DMSO; Group 2 (Tf-D-HKN15) received HBSS buffer containing 0.05% DMSO with 50 µM Tf-D-HKN15 peptides; Group 3 (Tf-D-HKC15) received HBSS buffer containing 0.05% DMSO with 50 µM Tf-D-HKC15 peptides; Group 4 (Tf-D-HKC8) received HBSS buffer containing 0.05% DMSO with 50 µM Tf-D-HKC8 peptides. The xenografts were injected (two points, 20 µl per tumor) every 2 days. Beginning on the day of inoculation, mouse weight and tumor volume were monitored every 2 days. Mice were monitored for changes in body weight and sacrificed when values fell below 20% of their initial weight; the survival curve was calculated and the final tumor tissues were isolated for biomedical analysis.
To measure the malignant SNK6 xenograft growth, the 100µl of 1x10^5 SNK6 cells in PBS were mixed with 100µl growth factor-reduced basement membrane matrix (Matrigel™, BD Biosciences) resulting in 200µl of solution that was injected subcutaneously along the mouse flank at each intended tumor site. Tumor size was measured using a digital caliper and volume was calculated, and mice were randomly divided into 4 groups (n=9 per group) when the tumor volume reached 50-100 mm^3 on day ~18 after tumor inoculation: Group 1 (CTL) was intratumorally injected with HBSS buffer (5.33 mM KCl, 0.44 mM KH2PO4, 138 mM NaCl, 4 mM NaHCO3, 0.3 mM Na2HPO4, and 5.6 mM glucose, pH 7.3) containing 0.05% DMSO; Group 2 (Tf-D-HKN15) received HBSS buffer containing 0.05% DMSO with 50 µM Tf-D-HKN15 peptides; Group 3 (Tf-D-HKC15) received HBSS buffer containing 0.05% DMSO with 50 µM Tf-D-HKC15 peptides; Group 4 (Tf-D-HKC8) received HBSS buffer containing 0.05% DMSO with 50 µM Tf-D-HKC8 peptides. The xenografts were injected (two points, 20 µL per tumor) every two days. Beginning on the day of inoculation, mouse weight and tumor volume were monitored every 2 days. Mice were monitored for changes in body weight and sacrificed when values fell below 20% of their initial weight, the survival curve was calculated and the final tumor tissues were isolated for biomedical analysis.

BMRF1 = assay: mRNA level by qPCR in SNK6 cells; format: cell-based, EBV; conditions: 0.5 µM peptide, 6 h, vs CTL, n = 4 (Fig. 3f)
Method: (§2) Fig. 3 Peptide for the last eight aa of HKDC1 at the C-terminal (Tf-D-HKC8) inhibits EBV replication and P-gp expression through ROS generation and DNA damage in ENKTL cells. SNK6 cells were treated with control (CTL), Tf-D-HKN15, Tf-D-HKC15, or Tf-D-HKC8 peptide (0.5 µM) for 6 h and the cells were used for biomedical analysis. a ROS formation, n = 5. b 3-nitrotyrosine (3-NT) formation, n = 5. c 8-OHdG formation, n = 5. d Quantitation of γH2AX formation, n = 5. e Representative western blotting bands for d. f mRNA level by qPCR for BZLF1, BMRF1, and ABCB1, n = 4. g Protein quantitation for Zta, EA-D, and P-gp, n = 5. h Representative pictures of western blots for g. i EBV viral genomes/cell by qPCR, n = 4. *P < 0.05, vs CTL group; ^¶P < 0.05, vs Tf-D-HKC15 group. Results were expressed as mean ± SEM.

BZLF1 = assay: mRNA level by qPCR in SNK6 cells; format: cell-based, EBV; conditions: 0.5 µM peptide, 6 h, vs CTL, n = 4 (Fig. 3f)
Method: as §2

HKDC1/VDAC1 [4] = target: T1, HKDC1/VDAC1; assay: IP/WB association of HKDC1 with VDAC1 in HMECs; format: cell-based; design: endogenous in cells; conditions: 0.5 µM peptide, 6 h, compared with CTL group, n = 5 (Fig S3)
Method: as §1
(§3) Figure S3. Peptide Tf-D-HKC8 dissociates HKDC1 from VDAC1 in cancer cells, but little effect on normal cells. Different cells, including HMECS, HANK1 and SW480, were treated by either control (CTL) or Tf-D-HKC8 peptide (0.5µM) for 6 hours, and the cells were used for IP/WB analysis. (a) Representative western blotting bands for IP/WB. (b) Protein quantitation for IP/WB for (a), n=5. *, P<0.05, vs CTL group. Results were expressed as mean ± SEM.

HKDC1/VDAC1 [5] = target: T1, HKDC1/VDAC1; assay: IP/WB association of HKDC1 with VDAC1 in HANK1 cells; format: cell-based; design: endogenous in cells; conditions: 0.5 µM peptide, 6 h, compared with CTL group, n = 5 (Fig S3)
Method: as §1, §3

HKDC1/VDAC1 [6] = target: T1, HKDC1/VDAC1; assay: IP/WB association of HKDC1 with VDAC1 in SW480 cells; format: cell-based; design: endogenous in cells; conditions: 0.5 µM peptide, 6 h, compared with CTL group, n = 5 (Fig S3)
Method: as §1, §3

T1 sequence (P21796 2-283 limits assumed): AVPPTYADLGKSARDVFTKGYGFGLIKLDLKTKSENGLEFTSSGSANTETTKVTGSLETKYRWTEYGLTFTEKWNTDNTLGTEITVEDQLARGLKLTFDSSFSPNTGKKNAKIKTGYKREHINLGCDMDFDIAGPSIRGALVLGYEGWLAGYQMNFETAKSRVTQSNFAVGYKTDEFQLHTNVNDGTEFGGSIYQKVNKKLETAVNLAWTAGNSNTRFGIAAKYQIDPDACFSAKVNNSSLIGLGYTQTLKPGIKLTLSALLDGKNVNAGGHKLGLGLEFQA

## HAIYPRH-ITAVAKRLQQAQKEN [Tf-D-HKC15]
HKDC1/VDAC1 [1]
  association of HKDC1 with VDAC1: 68%
SNK6 cells [2]
  γH2AX formation: 144%
SNK6 cells [3]
  cell invasion: 61%
SNK6 xenograft
  tumor volumes on day 36: 63%
  tumor volumes on day 48: 70%
BMRF1
  BMRF1 mRNA: 65%
BZLF1
  BZLF1 mRNA: 47%

## HAIYPRH-LQQAQKEN [Tf-D-HKC8]
HKDC1/VDAC1 [1]
  association of HKDC1 with VDAC1: 24%
HKDC1/VDAC1 [4]
  association of HKDC1 with VDAC1 in HMECs: little effect
SNK6 cells [2]
  γH2AX formation: 189%
HKDC1/VDAC1 [5]
  association of HKDC1 with VDAC1 in HANK1 cells: 34%
SNK6 cells [3]
  cell invasion: 29%
SNK6 xenograft
  tumor volumes on day 36: 36%
  tumor volumes on day 48: 32%
BMRF1
  BMRF1 mRNA: 31%
BZLF1
  BZLF1 mRNA: 21%
HKDC1/VDAC1 [6]
  association of HKDC1 with VDAC1 in SW480 cells: 67%
